This series is described as follows: Human HepG2 cell viability assay in 384 well format. It is filed as toxicity, cell-based. Set-up: dose 125 nL, time 70.5 hour; concentration not given beside the values. The settings on record: HepG2 cells, read-out: Inhibition.
Regarding `CCOCc1ccccc1NC(=O)NC1CCN(c2ccccc2)C1` (stereo not drawn), the cytotoxicity at 70.5 h was -4.36%.

Regarding `COc1ccc(NC(C)c2nnnn2-c2ccccc2)cn1` (stereo not drawn), the cytotoxicity at 70.5 h was -96.1%.

In the case of `Cc1noc(CNc2ccccc2N2CCCCC2)n1`, the cytotoxicity at 70.5 h is -2.98%.

`COc1c(CNC2CCc3cc(C)ccc32)c(C)nn1C` (stereo not drawn): the cytotoxicity at 70.5 h is -1.11%.

Turning to `CN(Cc1ccc2c(c1)OCO2)C(=O)c1ccn(C)c(=O)c1`, the cytotoxicity at 70.5 h was -10.8%.

With `Cc1nc(O)cc(CN2CCC=C(CN(C)C(=O)c3ccco3)C2)n1`, the cytotoxicity at 70.5 h was -14.2%.

Turning to `COc1ccc(OC2CCN(C(=O)c3cnc(C)s3)CC2)cc1`, the cytotoxicity at 70.5 h was -4.93%.

`CC1CCCCN1C(=O)COc1nc(C(C)(C)C)no1` (stereo not drawn): the cytotoxicity at 70.5 h was -2.52%.

For the compound `CN(Cc1cc(=O)c(O)co1)C1CCN(c2ccc(F)cc2)CC1`, the cytotoxicity at 70.5 h came out at 22.1%.

For `COc1ccc(Cl)cc1NCc1nc2[nH]c(C)c(C)c(=O)n2n1`, the cytotoxicity at 70.5 h is -4.46%.

Turning to `CNC(=O)Nc1cnc2cc(Cl)ccc2c1O`, the cytotoxicity at 70.5 h worked out at 10%.

Regarding `Cc1ccc(NC(=O)NCCc2cnn(C)c2)c(N(C)C)n1`, the cytotoxicity at 70.5 h came to 0.893%.

Take `Cc1nc2[nH]cnc(Nc3ccn(C)n3)c-2n1`: the cytotoxicity at 70.5 h is -4.89%.

For the compound `CC(C)CNc1nccc(-c2cnc3sc(Cl)cn3c2=O)n1`, the cytotoxicity at 70.5 h is -6.64%.

For `CNc1nc(C2CCCN2C(C)=O)nc2c1CCN(CC1CC1)C2` (stereo not drawn), the cytotoxicity at 70.5 h was -13.7%.

In the case of `CC(=O)c1cccc(OCc2cc(C(=O)N3CCCCO3)n[nH]2)c1`, the cytotoxicity at 70.5 h was -15.4%.

`CCOC(=O)C(C)NC(=O)CCSc1ccc(F)cc1` (stereo not drawn): the cytotoxicity at 70.5 h was -2.94%.

Turning to `CNC(=O)N1CCOC(C)(c2cnn(C)c2)C1` (stereo not drawn), the cytotoxicity at 70.5 h was -5.87%.

On to `CCOCCCC(=O)NS(=O)(=O)c1ccc(C)s1`, for which the cytotoxicity at 70.5 h was -0.611%.

Consider `c1ccc(CNc2nc(N3CCOCC3)nc3nccnc23)cc1`, for which the cytotoxicity at 70.5 h is -12.1%.

Turning to `COCc1ncn2c1CN(C(=O)Nc1ccccc1)CC2`, the cytotoxicity at 70.5 h is -4.33%.

As to `COCCO[C@H]1CCN(C(=O)c2ccco2)[C@H]1Cc1cnn(C)c1`, the cytotoxicity at 70.5 h was -90.2%.

For the compound `CC1c2cc(F)ccc2CCN1CCCS(=O)(=O)C(C)C` (stereo not drawn), the cytotoxicity at 70.5 h was -2.78%.

With `O=C(NC1CCN(CC2CC2)C1)c1ccc(N2CCC(O)CC2)cc1` (stereo not drawn), the cytotoxicity at 70.5 h is -7.24%.

`CC1CCCN(Cc2ccnc(-c3cccnc3)n2)C1` (stereo not drawn): the cytotoxicity at 70.5 h is -13%.

On to `O=C(NCC1CC1)[C@@H]1CC[C@@H]2[C@@H](CCN2CCOCc2ccccc2)O1`, for which the cytotoxicity at 70.5 h is -9.94%.

`N#Cc1ccc(OCCN2CCc3c(ncn3C3CC3)C2)cc1`: the cytotoxicity at 70.5 h was found to be 8.16%.

Consider `COc1cc(CN(C)C(=O)NC2CC2)ccc1SC`, for which the cytotoxicity at 70.5 h is -3.48%.

As to `CCC(NC(=O)c1nn(C)cc1C(=O)O)c1ccc(C)cc1C` (stereo not drawn), the cytotoxicity at 70.5 h is -6.11%.

For `CC(NC(=O)CCc1ccsc1)c1ccc2c(c1)NC(=O)CO2` (stereo not drawn), the cytotoxicity at 70.5 h was -6.31%.

With `Cn1cnc2c1CCN(CCOc1ccc3c(c1)CCC(=O)N3)C2`, the cytotoxicity at 70.5 h is -12.1%.

On to `Cn1ccc(C(=O)NCc2ccc(Cn3ccnc3)cc2)cc1=O`, for which the cytotoxicity at 70.5 h is -1.16%.

Consider `CN(C)C(=O)C1CSCN1C(=O)CCc1ccco1` (stereo not drawn), for which the cytotoxicity at 70.5 h was -8.81%.

`CCNC(=O)NC(=O)CN1CCOC(c2ccc(Br)cc2)C1` (stereo not drawn): the cytotoxicity at 70.5 h is -3.93%.

`CCCc1cc(C(=O)N2CCC3(CC2)CN(CCN(C)C)C(=O)O3)no1`: the cytotoxicity at 70.5 h was -0.0862%.

`COc1cc2c(cc1OC)CN(Cc1ncccc1C(=O)O)CC2`: the cytotoxicity at 70.5 h was -13.5%.

Regarding `CNS(=O)(=O)Cc1ccc(CNc2cncc(-n3cccn3)n2)cc1`, the cytotoxicity at 70.5 h is -18.1%.

In the case of `Cc1ncnc2c1CCN(C(=O)c1ccoc1)CC2`, the cytotoxicity at 70.5 h was -6.33%.

As for `O=C([C@H]1CCS(=O)(=O)[C@@H]2CN(CCc3ccccc3)C[C@H]12)N1CCCC1`, the cytotoxicity at 70.5 h was -1.64%.

With `COCC(=O)N1CCn2c(COc3cccnc3)cnc2C1C` (stereo not drawn), the cytotoxicity at 70.5 h is 6.09%.

Regarding `Cc1nc(CCNC(=O)Nc2cc(C(F)(F)F)c[nH]c2=O)cs1`, the cytotoxicity at 70.5 h was -6.32%.

`COc1cc2cc(C(=O)NC(C)C(=O)O)n(C)c2c(OC)c1OC` (stereo not drawn): the cytotoxicity at 70.5 h is -7.07%.

In the case of `C=C(C)CN1C(=O)CC(Cc2ccc(F)cc2)C1=O` (stereo not drawn), the cytotoxicity at 70.5 h was -3.87%.

`Cc1oc(CNC(=O)Cc2ccc3ccccc3c2)cc1C(=O)O`: the cytotoxicity at 70.5 h is 5.89%.

Regarding `O=C(Nc1cc(Cl)ccc1Cl)NC1CCN(C2CCOC2)CC1` (stereo not drawn), the cytotoxicity at 70.5 h stood at 25.3%.

On to `O=C(Cn1ccc(=O)c2ccccc21)Nc1cnccc1O`, for which the cytotoxicity at 70.5 h came to 8.04%.

Take `CCc1noc(C(C)N2CCC(C(=O)Nc3cnn(CC)c3)CC2)n1` (stereo not drawn): the cytotoxicity at 70.5 h worked out at 41.4%.

Turning to `CC(C)CC(=O)N1CC(=O)c2sc(Nc3ccc(C#N)cc3)nc2C1`, the cytotoxicity at 70.5 h worked out at 0.0296%.

Regarding `Cc1cnnn1Cc1ncn2c1CN(Cc1cccs1)CCC2`, the cytotoxicity at 70.5 h worked out at 4.51%.

Consider `Cc1cc(C)n(CC2CCCCN2C(=O)c2ccsc2)n1` (stereo not drawn), for which the cytotoxicity at 70.5 h is -2.03%.

For `CC(C)CCCNC(=O)Nc1ccc(F)c(C(N)=O)c1`, the cytotoxicity at 70.5 h was determined as 2.14%.

`N#CCCN1CCC(=Cc2ccccc2)CC1`: the cytotoxicity at 70.5 h was -6.02%.

Regarding `CS(=O)(=O)c1cccc(C(=O)NCc2nc3cc(F)ccc3[nH]2)c1`, the cytotoxicity at 70.5 h was -5.23%.

In the case of `CN(CCc1cnn(C)c1)C(=O)Cn1c(=O)[nH]c2ccccc21`, the cytotoxicity at 70.5 h was -6.43%.

For `Cc1ccc(CNC(=O)N2CCN(C(C)c3cccnc3)CC2)cn1` (stereo not drawn), the cytotoxicity at 70.5 h is -3.85%.

With `O=C(O)[C@]12CCCN(Cc3ccncc3)C[C@H]1CN(c1ncccn1)C2`, the cytotoxicity at 70.5 h worked out at 2.52%.

Regarding `CC(C)n1cnnc1CN(C)C(=O)c1ccc[nH]1`, the cytotoxicity at 70.5 h turned out to be 18.8%.

As for `O=C(COc1ccc2c(c1)OCO2)NCc1ccco1`, the cytotoxicity at 70.5 h was -5.95%.

`Cc1ocnc1C(=O)N[C@H]1CN(CC2CCC2)C[C@@H]1C(C)C`: the cytotoxicity at 70.5 h is -1.41%.

As for `Cc1ccc(CN(C)Cc2nc3c(cnn3C)c(=O)[nH]2)o1`, the cytotoxicity at 70.5 h is -2.01%.

With `Cc1ccc2oc(C(=O)N3CCCC(n4cccn4)C3)cc2n1` (stereo not drawn), the cytotoxicity at 70.5 h amounted to 21.1%.

In the case of `COCC[C@]1(O)CCN(Cc2ccccn2)C[C@H]1C`, the cytotoxicity at 70.5 h is -0.199%.

Take `CCn1nccc1C(=O)Nc1nc(C)c(C(C)=O)s1`: the cytotoxicity at 70.5 h is -5.2%.

As to `CCn1c2c(ccc1=O)CC(N)CC2` (stereo not drawn), the cytotoxicity at 70.5 h was determined as 15.2%.

`CCCNC(=O)CNc1cc(C(=O)NCC(F)(F)F)cc(F)c1C`: the cytotoxicity at 70.5 h was -6.37%.

In the case of `CN(Cc1cnn(C)c1)C(=O)c1ccc(=O)n(C)n1`, the cytotoxicity at 70.5 h is -1.81%.

On to `CCc1ncc2c(n1)CN(c1nc(C)ccc1C(=O)O)C2`, for which the cytotoxicity at 70.5 h is -10.8%.

In the case of `Cn1nnc2c1C(COCc1cccnc1)CN(Cc1ccoc1)C2` (stereo not drawn), the cytotoxicity at 70.5 h is -16.5%.

As for `Cn1c(=O)oc2ccc(NC(=O)N3CCc4ccccc4C3)cc21`, the cytotoxicity at 70.5 h turned out to be 2.84%.

On to `CCOC(C)c1noc(CN2CCN(Cc3ccno3)CC2)n1` (stereo not drawn), for which the cytotoxicity at 70.5 h is -3.49%.

As to `Cn1nnnc1SC1CCCN(c2cccc(F)c2)C1=O` (stereo not drawn), the cytotoxicity at 70.5 h stood at 19.4%.

As for `CC(C(=O)N1CCN(C(=O)c2ccc(F)cc2)CC1)n1ccnc1` (stereo not drawn), the cytotoxicity at 70.5 h was -4.23%.

`CCCn1nnnc1COC(=O)C1Cc2cc(Cl)ccc2O1` (stereo not drawn): the cytotoxicity at 70.5 h is -9.18%.

For the origin of these results see ChEMBL document CHEMBL3507680, “University of Dundee, Gates Library screen for HepG2 cell viability”.
